Converted amounts (≈) assume the structure as drawn. Read-outs that look alike come from different tables or passages of the source.
Key:
Enterobacter cloacae [1] = experiment: MIC micro broth dilution assay; assay type: cell-based; set-up: key to stacked score activity, 100/MIC, E: stacked score = 100/MIC; settings: for stacked score activity, 100/MIC, E: E. cloacae
In short: (§1)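 Multidrug-resistant clinical ESKAPE isolates were grown overnight (Gram-positives in TSB, Gram-negatives in LB), diluted 1:1,000 and exposed to decreasing compound concentrations in DMF (≤2.0% DMF).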

Enterococcus faecium [2] = experiment: MIC micro broth dilution assay; assay type: cell-based; set-up: key to stacked score activity, 100/MIC, E: stacked score = 100/MIC; settings: for stacked score activity, 100/MIC, E: E. faecium
In short: as §1

Acinetobacter baumannii = experiment: Minimal bactericidal concentration (MBC) assay; assay type: cell-based; settings: purified compound, read-out: MBC90
Experimental: (§2) Briefly, compound was washed by centrifugation and serial dilution, before plating on Tryptic Soy Agar (TSA). Plates were incubated for 24 hours at 37° C. and cell viability assessed by determining CFU/ml at each concentration, for every compound. Percent recovery was then determined compared to CFU/ml from no drug controls. All concentrations and controls were tested using three biological replicates, alongside two technical replicates for each data point.

Enterobacter cloacae [3] = experiment: Minimal bactericidal concentration (MBC) assay; assay type: cell-based; settings: purified compound, read-out: MBC90
Experimental: as §2

Enterococcus faecium [4] = experiment: Minimal bactericidal concentration (MBC) assay; assay type: cell-based; settings: purified compound, read-out: MBC90
Experimental: as §2

Klebsiella pneumoniae = experiment: Minimal bactericidal concentration (MBC) assay; assay type: cell-based; settings: purified compound, read-out: MBC90
Experimental: as §2

Pseudomonas aeruginosa = experiment: Minimal bactericidal concentration (MBC) assay; assay type: cell-based; settings: purified compound, read-out: MBC90
Experimental: as §2

Staphylococcus aureus = experiment: Minimal bactericidal concentration (MBC) assay; assay type: cell-based; settings: purified compound, read-out: MBC90
Experimental: as §2

A. baumannii = experiment: Resistance serial passage assay; assay type: cell-based, Acinetobacter baumannii; settings: 8 passages, concentration doubled each day
Experimental: ESKAPE pathogens were grown overnight in liquid media at 37° C. These cultures were then diluted 1:100 in fresh media, and seeded into a 96-well plate. Lead bis-cyclic guanidines or control agents were added to respective wells at half MIC concentrations. Plates were then incubated for 24 hours at 37° C., with bacteria removed from these cultures on the following day, to inoculate fresh media (1:100 dilution) containing compounds at a 2-fold higher concentrations. These were then grown overnight, and the procedure repeated for a total of eight days. […] Each experiment was performed in triplicate, yielding identical results.

E. cloacae = assay type: cell-based, Enterobacter cloacae; settings: 8 passages, concentration doubled each day
Experimental: ESKAPE pathogens were grown overnight in liquid media at 37° C. These cultures were then diluted 1:100 in fresh media, and seeded into a 96-well plate. Lead bis-cyclic guanidines or control agents were added to respective wells at half MIC concentrations. […] These were then grown overnight, and the procedure repeated for a total of eight days.

[5] = system: Staphylococcus aureus (USA300 strain FPR3757); experiment: Murine model of lethal peritonitis; assay type: in vivo, mice; settings: 2× MIC, I.M., 1 h post-infection, six mice per group
Experimental: Using MRSA as a representative ESKAPE organism, we infected mice with 1×10^8 bacterial cells in 5% mucin via intraperitoneal injection. At 1 h post-infection, mice were then I.V. injected with either vancomycin (positive control), or I.M. with our front runner compounds.
Six mice per group were injected with 1×10^8 CFU ml^−1 of Staphylococcus aureus (USA300 strain FPR3757) in PBS containing 5% mucin. […] Mice were monitored twice daily for five days to assess mortality. The clinical endpoint of this study was when the mice reached a pre-moribund state. Characteristics of pre-moribund state include: hunched posture, rapid, shallow and/or labored breathing, ruffled fur, lethargy, failure to respond to stimuli, soiled anogenital area, paralysis, paresis, head tilt, circling, vocalizations, non-purposeful movements and/or were unable to eat or drink. Those mice reaching this state prior to the completion of the 5 day infection period were euthanized. The number of mice surviving between control and treatment groups was compared and analyzed for statistical significance using a log rank test.

[6] = panel of E. cloacae clinical isolates

For `CCCCCCCN1C(=N)N(CCCC[C@H]2CNC(=N)N2CCCCC2CCCCC2)C[C@@H]1CC1CCCCC1` [Compound 16], the “stacked score activity, 100/MIC, E” value (Enterobacter cloacae [1]) was 20, the MIC (Enterobacter cloacae [1]; Enterobacter cloacae, E. cloacae isolate 1404) was 2 µM (≈ 1.11 µg/mL) and the MIC (Enterobacter cloacae [1]; Enterobacter cloacae, E. cloacae isolate 1405) was 2 µM (≈ 1.11 µg/mL). It also gave an MIC (Enterobacter cloacae [1]; Enterobacter cloacae, E. cloacae isolate 1430) of 2 µM (≈ 1.11 µg/mL), an MIC (Enterobacter cloacae [1]; Enterobacter cloacae, E. cloacae isolate 1431) of 2 µM (≈ 1.11 µg/mL) and an MIC (Enterobacter cloacae [1]; Enterobacter cloacae, E. cloacae isolate 1445) of 2 µM (≈ 1.11 µg/mL). For the same molecule, the MIC (Enterobacter cloacae [1]; Enterobacter cloacae, E. cloacae isolate 1446) was 5 µM (≈ 2.78 µg/mL), the MIC (Enterobacter cloacae [1]; Enterobacter cloacae, E. cloacae isolate 1447) was 2 µM (≈ 1.11 µg/mL) and the MIC (Enterobacter cloacae [1]; Enterobacter cloacae, E. cloacae isolate 1448) was 2 µM (≈ 1.11 µg/mL). It also gave an MIC (Enterobacter cloacae [1]; Enterobacter cloacae, E. cloacae isolate 1454) of 2 µM (≈ 1.11 µg/mL), an MIC (Enterobacter cloacae [1]; Enterobacter cloacae, E. cloacae isolate 1455) of 2 µM (≈ 1.11 µg/mL) and an MIC (Enterobacter cloacae [1]; Enterobacter cloacae, purified compound, Table 1) of 1.62 µM (≈ 0.902 µg/mL). The “concentration inhibiting 90% of isolates” value (Enterobacter cloacae [1]; [6]) was 2 µM, the “stacked score activity, 100/MIC, E” value (Enterococcus faecium [2]) was 33 and the MIC (Enterococcus faecium [2]; Enterococcus faecium, E. faecium isolate 1406) was 2 µM (≈ 1.11 µg/mL). It also gave an MIC (Enterococcus faecium [2]; Enterococcus faecium, E. faecium isolate 1407) of 2 µM (≈ 1.11 µg/mL), an MIC (Enterococcus faecium [2]; Enterococcus faecium, E. faecium isolate 1432) of 2 µM (≈ 1.11 µg/mL) and an MIC (Enterococcus faecium [2]; Enterococcus faecium, E. faecium isolate 1438) of 2 µM (≈ 1.11 µg/mL). The MIC (Enterococcus faecium [2]; Enterococcus faecium, E. faecium isolate 1439) was 2 µM (≈ 1.11 µg/mL), the MIC (Enterococcus faecium [2]; Enterococcus faecium, E. faecium isolate 1443) was 2 µM (≈ 1.11 µg/mL) and the MIC (Enterococcus faecium [2]; Enterococcus faecium, E. faecium isolate 1444) was 2 µM (≈ 1.11 µg/mL). It also gave an MIC (Enterococcus faecium [2]; Enterococcus faecium, E. faecium isolate 1449) of 2 µM (≈ 1.11 µg/mL), an MIC (Enterococcus faecium [2]; Enterococcus faecium, E. faecium isolate 1450) of 2 µM (≈ 1.11 µg/mL) and an MIC (Enterococcus faecium [2]; Enterococcus faecium, E. faecium isolate 1451) of 2 µM (≈ 1.11 µg/mL). The MIC (Enterococcus faecium [2]; Enterococcus faecium, purified compound, Table 1) was 1.62 µM (≈ 0.902 µg/mL), the MBC (Acinetobacter baumannii; Acinetobacter baumannii) was 2.77 µM (≈ 1.54 µg/mL) and the MBC (Enterobacter cloacae [3]; Enterobacter cloacae) was 9.55 µM (≈ 5.32 µg/mL). For the same molecule, the MBC (Enterococcus faecium [4]; Enterococcus faecium) was 2.87 µM (≈ 1.6 µg/mL), the MBC (Klebsiella pneumoniae; Klebsiella pneumoniae) was 4.45 µM (≈ 2.48 µg/mL) and the MBC (Pseudomonas aeruginosa; Pseudomonas aeruginosa) was 3.99 µM (≈ 2.22 µg/mL). The MBC (Staphylococcus aureus; Staphylococcus aureus) was 3.88 µM (≈ 2.16 µg/mL), the “increase in MIC after serial passage” value (A. baumannii) was 8 fold and the “increase in MIC after serial passage” value (E. cloacae) was 8 fold. For the same molecule, the “survival of infected mice over 5 day infection period” value [5] was “only a single mouse succumbing to infection after the first day”.

With `CCCCCCCN1C(=N)N(CCCC[C@H]2CNC(=N)N2CCC23CC4CC(CC(C4)C2)C3)C[C@@H]1CCCC` [Compound 19] the “stacked score activity, 100/MIC, E” value (Enterobacter cloacae [1]) was 20, the MIC (Enterobacter cloacae [1]; E. cloacae isolate 1404) was 2.0 µM (≈ 1.08 µg/mL) and the MIC (Enterobacter cloacae [1]; E. cloacae isolate 1405) was 2.0 µM (≈ 1.08 µg/mL). For the same molecule, the MIC (Enterobacter cloacae [1]; E. cloacae isolate 1430) was 3.0 µM (≈ 1.62 µg/mL), the MIC (Enterobacter cloacae [1]; E. cloacae isolate 1431) was 2.0 µM (≈ 1.08 µg/mL) and the MIC (Enterobacter cloacae [1]; E. cloacae isolate 1445) was 3.0 µM (≈ 1.62 µg/mL). For the same molecule, the MIC (Enterobacter cloacae [1]; E. cloacae isolate 1446) was 5.0 µM (≈ 2.7 µg/mL), the MIC (Enterobacter cloacae [1]; E. cloacae isolate 1447) was 2.0 µM (≈ 1.08 µg/mL) and the MIC (Enterobacter cloacae [1]; E. cloacae isolate 1448) was 2.0 µM (≈ 1.08 µg/mL). The MIC (Enterobacter cloacae [1]; E. cloacae isolate 1454) was 2.0 µM (≈ 1.08 µg/mL), the MIC (Enterobacter cloacae [1]; E. cloacae isolate 1455) was 2.0 µM (≈ 1.08 µg/mL) and the “concentration inhibiting 70% of strains” value (Enterobacter cloacae [1]; [6]) was 2 µM. The “concentration inhibiting 90% of isolates” value (Enterobacter cloacae [1]; [6]) was 5 µM, the MIC (Enterobacter cloacae [1]; purified compound, Table 1) was 1.66 µM (≈ 0.898 µg/mL) and the “stacked score activity, 100/MIC, E” value (Enterococcus faecium [2]) was 33. For the same molecule, the MIC (Enterococcus faecium [2]; E. faecium isolate 1406) was 2.0 µM (≈ 1.08 µg/mL), the MIC (Enterococcus faecium [2]; E. faecium isolate 1407) was 2.0 µM (≈ 1.08 µg/mL) and the MIC (Enterococcus faecium [2]; E. faecium isolate 1432) was 2.0 µM (≈ 1.08 µg/mL). For the same molecule, the MIC (Enterococcus faecium [2]; E. faecium isolate 1438) was 2.0 µM (≈ 1.08 µg/mL), the MIC (Enterococcus faecium [2]; E. faecium isolate 1439) was 2.0 µM (≈ 1.08 µg/mL) and the MIC (Enterococcus faecium [2]; E. faecium isolate 1443) was 2.0 µM (≈ 1.08 µg/mL). For the same molecule, the MIC (Enterococcus faecium [2]; E. faecium isolate 1444) was 2.0 µM (≈ 1.08 µg/mL), the MIC (Enterococcus faecium [2]; E. faecium isolate 1449) was 2.0 µM (≈ 1.08 µg/mL) and the MIC (Enterococcus faecium [2]; E. faecium isolate 1450) was 2.0 µM (≈ 1.08 µg/mL). For the same molecule, the MIC (Enterococcus faecium [2]; E. faecium isolate 1451) was 2.0 µM (≈ 1.08 µg/mL), the MIC (Enterococcus faecium [2]; purified compound, Table 1) was 1.66 µM (≈ 0.898 µg/mL) and the MBC (Acinetobacter baumannii) was 4.66 µM (≈ 2.52 µg/mL). The MBC (Enterobacter cloacae [3]) was 2.70 µM (≈ 1.46 µg/mL), the MBC (Enterococcus faecium [4]) was 3.59 µM (≈ 1.94 µg/mL) and the MBC (Klebsiella pneumoniae) was 2.61 µM (≈ 1.41 µg/mL). For the same molecule, the MBC (Pseudomonas aeruginosa) was 2.77 µM (≈ 1.5 µg/mL), the MBC (Staphylococcus aureus) was 2.88 µM (≈ 1.56 µg/mL) and the “increase in MIC after serial passage” value (A. baumannii) was 8 fold. For the same molecule, the “increase in MIC after serial passage” value (E. cloacae) was 8 fold and the “survival of infected mice over 5 day infection period” value [5] was “only a single mouse succumbing to infection after the first day”.

— US20170065564A1, “BIS-CYCLIC GUANIDINE COMPOUND COMPOSITIONS, METHODS OF USE AND TREATMENT THEREOF” (University of South Florida, priority 2014, published 2017)
